In ChEMBL document CHEMBL1159224, “A new cytotoxic dihydroxy sterol from the soft coral Alcyonium patagonicum” (J Nat Prod, 1995):
Converted amounts (≈) assume the structure as drawn.

Tested on: P388
Assay: Cytotoxicity against mouse P388 cells
Format: functional, cell-based

Structure (SMILES): C=C(CC[C@@H](C)[C@H]1CC[C@H]2[C@@H]3C[C@@H](O)C4=C[C@@H](O)CC[C@]4(C)[C@H]3CC[C@]12C)C(C)C
- IC50: 1 µg/mL (≈ 2.41 µM)
